Source: ChEMBL document CHEMBL3414497, “Overcoming mutagenicity and ion channel activity: optimization of selective spleen tyrosine kinase inhibitors” (J Med Chem, 2015)
Values belong to the compound of their own block, whether it stands above or below them.

Tests used:
Rattus norvegicus = species on record: Rattus norvegicus; conditions: in vivo, po
in vivo [1] = conditions: rat, plasma, po
in vivo [2] = conditions: rat, po
in vivo [3] = conditions: rat, po; remark: listed apart in the source
[4] = Cmax in collagen-induced Lewis rat arthritic model at 3 mg/kg, po qd; assay type: ADME, organism-based; design: dose 3 mg/kg, route oral; conditions: in vivo
Plasma [5] = experiment: Plasma concentration in collagen-induced Lewis rat arthritic model at 1 mg/kg, po qd measured immediately post compound dosing; assay type: ADME, organism-based; design: dose 1 mg/kg, route oral; conditions: in vivo
[6] = Plasma concentration in collagen-induced Lewis rat arthritic model at 1 mg/kg, po qd measured at 2 hrs; assay type: ADME, organism-based; design: dose 1 mg/kg, route oral
[7] = Plasma concentration in collagen-induced Lewis rat arthritic model at 1 mg/kg, po qd measured at 4 hrs; assay type: ADME, organism-based; design: dose 1 mg/kg, route oral
[8] = Plasma concentration in collagen-induced Lewis rat arthritic model at 1 mg/kg, po qd measured at 8 hrs; assay type: ADME, organism-based; design: dose 1 mg/kg, route oral
[9] = Plasma concentration in collagen-induced Lewis rat arthritic model at 1 mg/kg, po qd measured at 24 hrs; assay type: ADME, organism-based; design: dose 1 mg/kg, route oral
Plasma [10] = experiment: Plasma concentration in collagen-induced Lewis rat arthritic model at 3 mg/kg, po qd measured immediately post compound dosing; assay type: ADME, organism-based; design: dose 3 mg/kg, route oral; conditions: in vivo
[11] = Plasma concentration in collagen-induced Lewis rat arthritic model at 3 mg/kg, po qd measured at 2 hrs; assay type: ADME, organism-based; design: dose 3 mg/kg, route oral
[12] = Plasma concentration in collagen-induced Lewis rat arthritic model at 3 mg/kg, po qd measured at 4 hrs; assay type: ADME, organism-based; design: dose 3 mg/kg, route oral
[13] = Plasma concentration in collagen-induced Lewis rat arthritic model at 3 mg/kg, po qd measured at 8 hrs; assay type: ADME, organism-based; design: dose 3 mg/kg, route oral
[14] = Plasma concentration in collagen-induced Lewis rat arthritic model at 3 mg/kg, po qd measured at 24 hrs; assay type: ADME, organism-based; design: dose 3 mg/kg, route oral
Plasma [15] = experiment: Plasma concentration in collagen-induced Lewis rat arthritic model at 10 mg/kg, po qd measured immediately post compound dosing; assay type: ADME, organism-based; design: dose 10 mg/kg, route oral; conditions: in vivo
[16] = Plasma concentration in collagen-induced Lewis rat arthritic model at 10 mg/kg, po qd measured at 2 hrs; assay type: ADME, organism-based; design: dose 10 mg/kg, route oral
[17] = Plasma concentration in collagen-induced Lewis rat arthritic model at 10 mg/kg, po qd measured at 4 hrs; assay type: ADME, organism-based; design: dose 10 mg/kg, route oral
[18] = Plasma concentration in collagen-induced Lewis rat arthritic model at 10 mg/kg, po qd measured at 8 hrs; assay type: ADME, organism-based; design: dose 10 mg/kg, route oral
[19] = Plasma concentration in collagen-induced Lewis rat arthritic model at 10 mg/kg, po qd measured at 24 hrs; assay type: ADME, organism-based; design: dose 10 mg/kg, route oral
physchem [20] = conditions: octanol/buffer
physchem [21] = experiment: physchem

CL free (Rattus norvegicus): 255 mL/min/kg
CL/F (in vivo [1]): 44 mL/min/kg
half-life (in vivo [2]): 2.8 h
SMILES: NC(=O)c1ncc(N[C@@H]2CCCC[C@@H]2N)nc1-c1cc2ccccc2[nH]1

CL free (Rattus norvegicus): 100 mL/min/kg
CL/F (in vivo [1]): 25 mL/min/kg
half-life (in vivo [2]): 3.5 h
bioavailability (in vivo [3]): 29%
SMILES: COc1cccc2[nH]c(-c3nc(N[C@@H]4CCOC[C@@H]4N)cnc3C(N)=O)cc12

Cmax [4]: 200 nM
concentration (Plasma [5]): 5 nM
concentration at 2 h [6]: 40 nM
concentration at 4 h [7]: 100 nM
concentration at 8 h [8]: 90 nM
concentration at 24 h [9]: 5 nM
concentration (Plasma [10]): 7 nM
concentration at 2 h [11]: 60 nM
concentration at 4 h [12]: 200 nM
concentration at 8 h [13]: 100 nM
concentration at 24 h [14]: 7 nM
concentration (Plasma [15]): 10 nM
concentration at 2 h [16]: 200 nM
concentration at 4 h [17]: 500 nM
concentration at 8 h [18]: 500 nM
concentration at 24 h [19]: 10 nM
CL free (Rattus norvegicus): 710 mL/min/kg
CL/F (in vivo [1]): 33 mL/min/kg
half-life (in vivo [2]): 2.7 h
bioavailability (in vivo [3]): 19%
logD at 500 µM (physchem [20]): 2.1
pKa at 100 µM (physchem [21]): 9
SMILES: Cc1cc(C)nc(Nc2cc(N[C@@H]3CCCC[C@@H]3N)cnc2C(N)=O)c1
